Reference: patent US20050131051A1, “2-3-disubstituted quinuclidiness as modulators of monoamine transporters and theraperutic and diagnostic methods based thereon” (priority 2000, published 2005)
Read-outs that look alike come from different tables or passages of the source.

Assays:
[1] = biological target: T1, dopamine transporter (DAT) (Rattus norvegicus, UniProt P23977); assay: [3H]mazindol binding assay; conditions: for Ki: rat striatum membranes, mean ± standard error or range of 2-3 experiments
T1 construct: P2 membrane pellets were prepared by differential centrifugation from rat striatum; from tissue; host or cells: rat striatum (P2 membrane pellet / P2 synaptosomes)
Procedure: Binding assays were conducted as previously described. Briefly conventional P2 membrane pellets were prepared by differential centrifugation from rat striatum. The P2 pellet was resuspended in Krebs-Ringer-HEPES (KRH) buffer consisting of (in mM): NaCl (125), KCl (4.8), MgSO4 (1.2), CaCl2 (1.3), KH2PO4 (1.2), glucose (5.6), nialamide (0.01), and HEPES (25) (pH 7.4) and centrifuged again. Finally, the pellet was resuspended in 30 volumes of buffer, pelleted at 15,000×g and frozen at −80° C. until used. The striatal homogenates were thawed by resuspension in the buffer described above at 75-125 µg protein/ml and incubated with [^3H]mazindol, with or without competing drugs, for 60 min in a 4° C. cold room. […] The bound and free [^3H]mazindol were separated by rapid vacuum filtration over Whatman GF/C filters, using a Brandel M24R cell harvester, followed by two washes with 5 ml of cold buffer. Radioactivity on the filters was then extracted by allowing to sit over night with 5 ml of scintillant. The vials were vortexed and counted. IC50 values were determined using the computer program LIGAND.
For binding assays, caudate nuclei were homogenized using a polytron in 0.32 M sucrose and centrifuged for 10 mm at 1000×g. The supernatant was resuspended in cold sucrose and centrifuged at 17,500×g for 20 mm. The pellet was resuspended in Krebs-Ringer-HEPES (KRH) buffer consisting of (in mM): NaCl (125), KCl (4.8), MgSO4 (1.2), CaCl2 (1.3), KH2PO4(1.2), glucose (5.6), nialamide (0.01), and HEPES (25) (pH 7.4) and centrifuged again. Finally, the pellet was resuspended in 30 volumes of buffer, pelleted at 15,000×g and frozen at −80° C. until used. The striatal homogenates were thawed by resuspension in the buffer described above at 75-125 μg protein/ml and incubated with [^3H]mazindol, with or without competing drugs, for 60 mm in a 4° C. cold room. […] The bound and free [^3H]mazindol were separated by rapid vacuum filtration over Whatman GF/C filters, using a Brandel M24R cell harvester, followed by two washes with 5 ml of cold buffer. Radioactivity on the filters was then extracted by allowing to sit over night with 5 ml of scintillant. The vials were vortexed and counted. IC50 values were determined using the computer program LIGAND.

[2] = biological target: T1, dopamine transporter (DAT); assay: Synaptosomal uptake of [3H]DA (inhibition of DA reuptake); format: biochemical
Procedure: The effect of candidate compounds in antagonizing dopamine high-affinity uptake was determined using a method previously employed. For [^3H]DA uptake, freshly dissected rat striata were homogenized with a Teflon-glass pestle in ice-cold 0.32 M sucrose and centrifuged for 10 min at 1000×g. The supernatant was centrifuged at 17,500×g for 20 min. This P2 synaptosomal pellet was resuspended in 30 volumes of ice-cold modified KRH buffer. An aliquot of the synaptosomal suspension was preincubated with the buffer and drug for 30 min at 37° C., and uptake initiated by the addition of [^3H]dopamine (5 nM, final conc.). After 5 min, uptake was terminated by adding 5 ml of cold buffer containing glucosamine as a substitute for NaCl and then finally by rapid vacuum filtration over GF-C glass fiber filters, followed by washing with two 5 ml volumes of ice-cold, sodium-free buffer. Radioactivity retained on the filters was determined by liquid scintillation spectrometry. […] It is identical to that calculated by subtracting the mean of identical tubes incubated at 0° C.
(§1) IC50 values were determined by a computer assisted, iterative fit to a four-parameter sigmoidal equation (ALLFIT). These values were then converted to Ki values according to the Cheng-Prusoff equation assuming classical competitive inhibition. Preincubation of the drug and synaptosomes at 37° C. for 30 min was used to approximate equilibrium conditions as necessary to satisfy the requirements of the Cheng-Prusoff equation.
(§2) The effect of candidate compounds in antagonizing dopamine high-affinity uptake was determined using a method previously employed. For [^3H]DA uptake, dissected rat striata were homogenized with a Teflon-glass pestle in ice-cold 0.32 M sucrose and centrifuged for 10 mm at 1000×g. The supernatant was centrifuged at 17,500×g for 20 mm. This P2 synaptosomal pellet was resuspended in 30 volumes of ice-cold modified KRH buffer. An aliquot of the synaptosomal suspension was preincubated with the buffer and drug for 30 mm at 37° C., and uptake initiated by the addition of [^3H]dopamine (5 nM, final conc.). After 5 mm, uptake was terminated by adding 5 ml of cold buffer containing glucosamine as a substitute for NaCl and then finally by rapid vacuum filtration over GF-C glass fiber filters, followed by washing with two 5 ml volumes of ice-cold, sodium-free buffer. Radioactivity retained on the filters was determined by liquid scintillation spectrometry. […] Also, specific uptake of [^3H]5-HT and [^3H]NE were defined in the presence of 10 uM fluoxetine and 1 uM desipramine, respectively.

[3] = biological target: T2, norepinephrine transporter (Rattus norvegicus, UniProt Q63380); assay: Synaptosomal uptake of [3H]NE; format: biochemical
T2 construct: using synaptosomes prepared from rat midbrain and parietal/occipital cortex, respectively; from tissue; host or cells: rat parietal/occipital cortex synaptosomes
Procedure: as §1, §2

serotonin transporter = biological target: T3, serotonin transporter (Rattus norvegicus, UniProt P31652); assay: Synaptosomal uptake of [3H]5-HT; format: biochemical
T3 construct: using synaptosomes prepared from rat midbrain and parietal/occipital cortex, respectively; from tissue; host or cells: rat midbrain synaptosomes
Procedure: as §1, §2

DAT = DAT (Homo sapiens, UniProt Q01959); conditions: cited from earlier work
[4] = read-out: Ki (nM) [3H] Mazindol Binding
[5] = Ki (nM) DA Reuptake, rat striatal synaptosomes, mean ± standard error or range of 2-3 experiments
[6] = Ki (nM) NE, synaptosomes from rat parietal/occipital cortex, mean ± standard error or range of 2-3 experiments
[7] = Ki (nM) SER, synaptosomes from rat midbrain, mean ± standard error or range of 2-3 experiments
[8] = binding affinity and DA reuptake not distinguished in the sentence

T1 sequence (P23977 whole entry): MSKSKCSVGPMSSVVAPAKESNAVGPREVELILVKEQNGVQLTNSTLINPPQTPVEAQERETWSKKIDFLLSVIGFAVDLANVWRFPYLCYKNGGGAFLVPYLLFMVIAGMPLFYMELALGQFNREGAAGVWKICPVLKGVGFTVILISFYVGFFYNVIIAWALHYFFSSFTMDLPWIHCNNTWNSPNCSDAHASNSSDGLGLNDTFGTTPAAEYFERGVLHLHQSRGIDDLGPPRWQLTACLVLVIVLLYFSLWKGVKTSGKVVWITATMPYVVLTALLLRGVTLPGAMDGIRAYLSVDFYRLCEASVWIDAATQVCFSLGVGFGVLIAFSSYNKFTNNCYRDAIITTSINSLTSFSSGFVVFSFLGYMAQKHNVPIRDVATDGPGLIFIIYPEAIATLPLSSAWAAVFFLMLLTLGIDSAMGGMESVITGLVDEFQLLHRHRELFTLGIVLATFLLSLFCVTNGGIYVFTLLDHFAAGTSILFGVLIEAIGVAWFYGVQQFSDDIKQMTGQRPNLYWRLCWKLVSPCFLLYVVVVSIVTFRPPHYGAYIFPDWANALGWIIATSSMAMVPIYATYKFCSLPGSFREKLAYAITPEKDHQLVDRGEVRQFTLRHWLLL
T3 sequence (P31652 whole entry): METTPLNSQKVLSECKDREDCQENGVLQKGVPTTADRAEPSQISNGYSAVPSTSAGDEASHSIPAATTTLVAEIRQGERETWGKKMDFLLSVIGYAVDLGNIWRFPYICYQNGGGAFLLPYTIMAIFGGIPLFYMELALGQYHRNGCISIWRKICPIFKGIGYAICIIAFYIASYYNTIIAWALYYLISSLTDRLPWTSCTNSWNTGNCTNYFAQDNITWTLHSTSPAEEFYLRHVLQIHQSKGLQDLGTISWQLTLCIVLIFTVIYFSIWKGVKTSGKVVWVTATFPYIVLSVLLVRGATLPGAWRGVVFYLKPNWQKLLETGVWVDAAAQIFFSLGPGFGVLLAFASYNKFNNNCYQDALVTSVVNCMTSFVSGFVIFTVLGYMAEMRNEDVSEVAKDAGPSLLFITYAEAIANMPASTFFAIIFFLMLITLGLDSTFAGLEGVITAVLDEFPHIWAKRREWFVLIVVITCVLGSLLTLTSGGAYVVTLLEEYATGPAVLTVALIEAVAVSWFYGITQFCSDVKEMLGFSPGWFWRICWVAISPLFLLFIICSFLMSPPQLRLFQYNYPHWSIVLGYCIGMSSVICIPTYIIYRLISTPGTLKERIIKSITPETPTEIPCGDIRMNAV
T2 sequence (Q63380 1-617): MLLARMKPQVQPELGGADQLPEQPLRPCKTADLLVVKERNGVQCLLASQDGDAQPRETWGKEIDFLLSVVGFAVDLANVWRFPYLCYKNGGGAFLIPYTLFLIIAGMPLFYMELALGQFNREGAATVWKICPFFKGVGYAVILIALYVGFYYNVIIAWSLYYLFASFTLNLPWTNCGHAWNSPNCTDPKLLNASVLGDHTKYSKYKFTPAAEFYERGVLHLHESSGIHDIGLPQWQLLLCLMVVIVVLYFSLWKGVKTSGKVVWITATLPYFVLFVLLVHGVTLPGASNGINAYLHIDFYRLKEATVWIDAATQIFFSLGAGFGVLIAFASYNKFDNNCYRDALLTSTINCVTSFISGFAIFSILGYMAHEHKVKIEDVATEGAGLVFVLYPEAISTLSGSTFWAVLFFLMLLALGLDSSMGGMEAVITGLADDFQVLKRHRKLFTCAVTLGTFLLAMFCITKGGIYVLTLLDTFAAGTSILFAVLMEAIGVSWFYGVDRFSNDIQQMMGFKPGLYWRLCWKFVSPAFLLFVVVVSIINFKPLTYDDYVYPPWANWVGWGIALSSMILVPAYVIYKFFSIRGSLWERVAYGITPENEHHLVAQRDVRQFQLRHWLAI
Sequence of DAT (Q01959 whole entry, species assumed): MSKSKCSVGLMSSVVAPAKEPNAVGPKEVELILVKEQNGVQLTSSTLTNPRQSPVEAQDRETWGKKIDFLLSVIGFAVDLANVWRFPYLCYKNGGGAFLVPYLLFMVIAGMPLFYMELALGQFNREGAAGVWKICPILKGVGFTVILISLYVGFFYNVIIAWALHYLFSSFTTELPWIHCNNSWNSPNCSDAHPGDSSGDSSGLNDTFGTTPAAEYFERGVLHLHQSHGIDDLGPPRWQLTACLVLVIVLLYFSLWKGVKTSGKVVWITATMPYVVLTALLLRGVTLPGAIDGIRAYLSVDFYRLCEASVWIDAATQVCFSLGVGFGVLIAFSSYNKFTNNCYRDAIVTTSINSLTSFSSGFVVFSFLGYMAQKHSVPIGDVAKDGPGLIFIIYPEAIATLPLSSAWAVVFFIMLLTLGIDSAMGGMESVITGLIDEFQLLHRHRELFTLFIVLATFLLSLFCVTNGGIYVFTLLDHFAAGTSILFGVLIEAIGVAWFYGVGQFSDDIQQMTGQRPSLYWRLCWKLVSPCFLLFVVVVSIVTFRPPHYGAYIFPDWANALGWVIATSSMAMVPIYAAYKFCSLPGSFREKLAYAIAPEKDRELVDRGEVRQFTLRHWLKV

CCCCC1C(c2ccccc2)C2CCN1CC2 (racemic) [(±)-12, 2-Butyl-3-phenylquinuclidine]
times more potent than cocaine in binding affinity [1]: as potent as cocaine
Ki [1, 4]: 210 nM
fold improvement over the lead compound (3) in binding affinity ([1]; ratio of Ki values): 31 fold
times more potent than cocaine in inhibition of DA reuptake [2]: as potent as cocaine
Ki [2, 5]: 237 nM
fold improvement over the lead compound (3) in inhibition of DA reuptake ([2]; ratio of Ki values): 32 fold
Ki [3]: 136 ± 11 nM
Ki (serotonin transporter): 655 ± 21 nM

CCCCC1C(c2ccc(C)cc2)C2CCN1CC2 (racemic) [(±)-13, 2-Butyl-3-(4-methylphenyl)quinuclidine]
Ki ([1]; Ki (nM) [3H] Mazindol Binding): 20 nM
fold improvement over 13 (so in the source) in binding activity ([1]; ratio of Ki values): 11 fold
fold improvement over the lead compound (3) in binding affinity ([1]; ratio of Ki values): 365 fold
Ki [2, 5]: 49 nM
fold improvement over 13 (so in the source) in uptake activity ([2]; ratio of Ki values): 5 fold
fold improvement over the lead compound (3) in inhibition of DA reuptake ([2]; ratio of Ki values): 181 fold
Ki [3, 6]: 62 ± 5 nM
Ki (serotonin transporter; [7]): 77 ± 7 nM

CCCCC1C(c2ccc(C)cc2)C2CCN1CC2 (single isomer, unassigned; (+)) [(+)-13, 2-Butyl-3-(4-methylphenyl)quinuclidine]
Ki [1, 4]: 343 nM
Ki [2, 5]: 354 nM
Ki [3]: 164 ± 47 nM
Ki (serotonin transporter): 508 ± 22 nM

CCCCC1C(c2ccc(C)cc2)C2CCN1CC2 (single isomer, unassigned; (-)) [(−)-13, 2-Butyl-3-(4-methylphenyl)quinuclidine]
times more potent than cocaine in binding affinity [1]: 17 times
Ki ([1]; Ki (nM) [3H] Mazindol Binding): 14 nM
fold improvement over the lead compound (3) in binding affinity ([1]; ratio of Ki values): 519 fold
times more potent than cocaine in inhibition of DA reuptake [2]: 9 times
Ki [2, 5]: 32 nM
fold more potent than (±)-13 [2, 8]: approximately 2 fold
fold more potent than its enantiomer (+)-13 [2, 8]: 11 fold
fold improvement over the lead compound (3) in inhibition of DA reuptake ([2]; ratio of Ki values): 278 fold
Ki [3, 6]: 15 ± 3 nM
Ki (serotonin transporter; [7]): 26 ± 3 nM

COC(=O)[C@H]1[C@@H](c2ccccc2)C[C@@H]2CC[C@H]1N2C [2 (WIN 35065-2), WIN 35065-2]
binding affinity at the DAT site, times better than cocaine (DAT): 4 times

C=CCCC1C(=O)C2CCN1CC2 (centres unmarked) [Compound 7, 2-But-3-enylquinuclidin-3-one]
Ki [2, 5]: > 10000 nM
measurable activity in inhibition of DA reuptake ([2]; at 10 µM): did not show any measurable activity

C=CCCC1N2CCC(CC2)C1(O)c1ccccc1 (centres unmarked) [Compound 8, 2-But-3-enyl-3-phenylquinuclidin-3-ol]
Ki ([2]; Ki value (text, refers to Table 1 DA reuptake)): 31200 nM
fold less potent than 12 ([2]; ratio of Ki values, DA reuptake): 131 fold
